Series [1] deals with NCI-H460 human lung carcinoma. Briefly: Tumor growth evaluation, NCI-H460 s.c. xenograft. The series is classed as in vivo, CD-1 nude mice. As for the experimental part:
NCI-H460 human lung carcinoma from in vitro cell cultures were injected s.c. (3×10^6 cells/100 μl/mouse) into the right flank of CD-1 nude mice. Four days after tumor implant mice started to be treated with ST2493 at the dose of 50 mg/kg intraperitoneally according to the following schedule: qdx5/w/3wks. CA-4P (combretastatin A-4 P) at the same dose was used as positive control.
All animals were weighed during the whole treatment period, in order to adjust the volume of drug administration and to record the percent of body weight loss due in the course of treatment.
In a following experiment with the same animal model ST2493 (prodrug of ST2303) was administered intravenously at the doses of 25 and 50 mg/kg according to a q2dx6 schedule.
Tumor growth was assessed by twice a week measurements of the shortest (width) and the longest (length) diameters of each tumor by a Vernier caliper and the antitumor activity was evaluated in terms of percent inhibition of tumor growth. Tumor volume (or tumor weight*) was calculated according to the following formula using caliper measurements: tumor volume or TV (mm^3)=[length (mm)×width (mm)^2]/2.
Tumor volume inhibition percent (% TVI) was calculated according to the equation: 100−[(mean tumor volume of treated group/mean tumor volume of control group)×100]. A P value≦0.05 was considered statistically significant.

Series [2] relates to bovine microvascular endothelial cells (BMEC). Briefly: Cytotoxicity assay (sulforhodamine B), BMEC. It counts as cell-based. The settings on record: Bos taurus, Endothelial cell, 24 h exposure, then 48 h drug-free. As for the experimental part:
(§1) Primary cultures of bovine microvascular endothelial cells (BMEC) were obtained from bovine adrenal glands as described by Folkman (Folkman J., Haudenschild C. C., Zetter B. R. Long-term culture of capillary endothelial cells. Proc. Natl. Acad. Sci. USA, 1979 October; 76(10): 5217-21). BMEC were maintained in DMEM supplemented with 20% fetal calf serum (FCS), 50 units/ml heparin (Sigma, St. Louis, Mo.), 50 μg/ml bovine brain extract, 100 units/ml gentamycin. HUVEC (Human umbilical vein endothelial cells) were obtained from BioWhittaker (Walkersville, Md.) and grown in EGM-2 (BioWhittaker). EA-hy 926 cell line, a HUVEC-adenocarcinoma immortalized cell hybrid, was obtained from the Dipartimento di Scienze Biomediche e Oncologia Umana (Universita di Bari, Italy), and cultured in DMEM supplemented with 10% serum and 50 μg/ml gentamycin sulfate.
(§2) To test the effects of ST2303 on growth, cells were seeded in 96-well tissue culture plates (Corning) at approximately 10% confluence and were allowed to attach and recover for at least 24 h. Varying concentrations of the compound were then added to each well. […] The number of surviving cells was then determined by staining with sulforhodamine B as described by Skehan et al. (1990). ST2303 inhibitory concentration 50 (IC50)±SD on different cell lines, evaluated by “ALLFIT” computer program, are shown in Table 1.

For series [3], the system named is HT-29 human colon adenocarcinoma cells. Briefly: Cytotoxicity assay (sulforhodamine B), HT-29. The series is classed as cell-based. As to conditions: HT29, 24 h exposure, then 48 h drug-free. On the procedure: (§3) The following cell lines were purchased from ATCC and cultured according to manufacturer's instructions: NCIH460 human lung carcinoma, MeWo human melanoma, MES-SA human uterine sarcoma and HCT116 human colorectal carcinoma. HT-29 human colon adenocarcinoma cells and A2780 human ovarian carcinoma, obtained from Istituto Nazionale Tumori (Milan, Italy), were grown in RPMI 1640 (GIBCO) containing 10% fetal bovine serum (GIBCO) and 50 μg/ml gentamycin sulfate.
(§4) To test the effects of ST2303 on growth, cells were seeded in 96-well tissue culture plates (Corning) at approximately 10% confluence and were allowed to attach and recover for at least 24 h. Varying concentrations of the compound were then added to each well. The plates were incubated for 24 h and then washed before incubating them for additional 48 h. The number of surviving cells was then determined by staining with sulforhodamine B as described by Skehan et al. (1990). ST2303 inhibitory concentration 50 (IC50)±SD on different cell lines, evaluated by “ALLFIT” computer program, are shown in Table 1.

For series [4], the system named is A2780 human ovarian carcinoma. Briefly: Cytotoxicity assay (sulforhodamine B), A2780. The series is classed as cell-based. As to conditions: 24 h exposure, then 48 h drug-free. On the procedure:
as §3, §4

Series [5] concerns MES-SA human uterine sarcoma. Briefly: Cytotoxicity assay (sulforhodamine B), MES-SA. As to conditions: 24 h exposure, then 48 h drug-free. The series is classed as cell-based. As for the experimental part: as §3, §4
Series [6] relates to MeWo human melanoma. Briefly: Cytotoxicity assay (sulforhodamine B), MeWo. The settings on record: 24 h exposure, then 48 h drug-free. The series is classed as cell-based. On the procedure:
as §3, §4

The test system of series [7] is HCT116 human colorectal carcinoma. Briefly: Cytotoxicity assay (sulforhodamine B), HCT116. The series is classed as cell-based. As to conditions: HCT 116, 24 h exposure, then 48 h drug-free. On the procedure: as §3, §4
For series [8], the system named is NCIH460 human lung carcinoma. Briefly: Cytotoxicity assay (sulforhodamine B), NCI-H460. It counts as cell-based. The settings on record: 24 h exposure, then 48 h drug-free. As for the experimental part: as §3, §4
Series [9] relates to HUVEC (Human umbilical vein endothelial cells). Briefly: Cytotoxicity assay (sulforhodamine B), HUVEC. It counts as cell-based. As to conditions: 24 h exposure, then 48 h drug-free. On the procedure: as §1, §2
The test system of series [10] is tubulin. Briefly: Tubulin polymerisation inhibition test (CytoDINAMIX Screen, turbidity at 340 nm). The settings on record: tubulin 3 mg/ml, 37° C.; mean of 3 independent determinations; read-out: IC50 ± SE, tubulin polymerisation. It counts as biochemical. As for the experimental part:
The tubulin polymerisation test was performed by CytoDINAMIX Screen™. Turbidity from tubulin polimerisation was measured with a Victor2 from Wallac. HTS-tubulin was diluted to 3 mg/ml in buffer PEM [100 mM PIPES (pH 6.9), 1 mM EGTA and 1 mM MgCl2] containing 1 mM GTP (GPEM) plus 5% glycerol, and kept on ice. Aliquots of this solution was then placed at 37° C. in presence of taxol (3 μM) or colcemid (3 μM) or combretastatin (ST1986) or compounds to examinate, and absorbance was measured at 340 nm. The IC50 values were determined by non-linear regression analysis using “Prism GraphPad” software.
The value indicated in Table 3 is the mean of 3 independent determinations.

Series [11] has as its system EA-hy 926 cell line. Briefly: Cytotoxicity assay (sulforhodamine B), EA-hy 926. The settings on record: Homo sapiens, EAHY.926, 24 h exposure, then 48 h drug-free. It counts as cell-based. On the procedure:
as §1, §2

Where [12] appears, read: i.p. 50 mg/kg, qdx5/w/3wks, day 11 after cell injection.
Setting [13] is: i.p. 50 mg/kg, qdx5/w/3wks, day 28 after cell injection.

The structures appear in SMILES notation. Marks after values point to notes of the source that are not given here. A value given as a limit tells only on which side of the number the result lay.

As to `COc1ccc(/C=C\c2cc(OC)c(OC)c(OC)c2)cc1OP(=O)(O)O` [CA-4P, combretastatin A-4 P, reference compound], the “% BWL (body weight loss)” value in [1] (i.p. 50 mg/kg, qdx5/w/3wks) came to 3%. For the same compound, the mortality in series [1] (i.p. 50 mg/kg, qdx5/w/3wks) was 0/8. In addition, the “% TVI (tumor volume inhibition)” value in series [1] (setting [12]) is given as 47** %; in [1] (setting [13]), 61*** %.

As to `COc1ccc(/C(F)=C(/F)c2cc(OC)c(OC)c(OC)c2)cc1OP(=O)([O-])[O-].[Na+].[Na+]` [ST2493, (Z)-1,2-difluoro-1-(3,4,5-trimethoxyphenyl)-2-(3-hydroxy-4-methoxyphenyl)ethene o-disodium phosphate], the “TVI compared to vehicle (in words)” value in series [1] (both intraperitoneal and intravenous administration) is recorded as “significant TVI”. Also, the “% BWL (body weight loss)” value in [1] (i.p. 50 mg/kg, qdx5/w/3wks) was 8%; in series [1] (i.v. 25 mg/kg, q2dx6), 8%; in series [1] (i.v. 50 mg/kg, q2dx6) it was 8%. In addition, the mortality was 0/8 in series [1] (i.p. 50 mg/kg, qdx5/w/3wks); 0/8 in series [1] (i.v. 25 mg/kg, q2dx6); 0/8 in series [1] (i.v. 50 mg/kg, q2dx6). Besides, the “% TVI (tumor volume inhibition)” value in series [1] (setting [12]) is listed as 68** %; in series [1] (setting [13]), 73*** %; in series [1] (i.v. 25 mg/kg, q2dx6, day 11 after cell injection), 63** %; in series [1] (i.v. 25 mg/kg, q2dx6, day 28 after cell injection) it was 64*** %; in [1] (i.v. 50 mg/kg, q2dx6, day 11 after cell injection), 73** %; in series [1] (i.v. 50 mg/kg, q2dx6, day 28 after cell injection) it was 73** %. Also, the “TVI compared with the same dose of CA-4P (in words)” value in [1] (intraperitoneal, 50 mg/kg, p=0.0095 at day 11, p=0.0180 at day 28, Mann Whitney's test) is on record as “significant difference”.

For `COc1ccc(/C(F)=C(/F)c2cc(OC)c(OC)c(OC)c2)cc1O` [ST2303, (Z)-1,2-difluoro-1-(3,4,5 trimethoxyphenyl)-2-(3-hydroxy-4-methoxyphenyl)ethene], the IC50 in series [2] is 1 ± 0.5 nM; in [3] it was over 200 nM; in series [4], 3 ± 0.001 nM; in series [5], under 1 nM; in [6] it was 3.6 ± 0.0003 nM; in series [7], 2.2 ± 0.05 nM. Moreover, the IC50 in series [8] is 3 ± 0.005 nM; in series [9], 1 ± 0.3 nM; in series [10], 7.7 ± 0.12 µM; in series [11], 5 ± 0.5 nM.

For the origin of these results see patent publication US7572778B2, “Fluorocombretastatin and derivatives thereof” (Sigma-Tau Industrie Farmaceutiche Riunite S.p.A., priority 2003, dated 2009).
